Test results taken from ChEMBL document CHEMBL1129138, “Nucleosides and nucleotides. 152. 1-(3-C-Ethynyl--D-ribo-pentofuranosyl)uracil as a broad spectrum antitumor nucleoside” (Bioorg Med Chem Lett, 1996).

Tests used:
A549 = experiment: Compound was tested for its inhibitory effect on the growth of A-549 tumor cell line from lung.; format: functional, cell-based; settings: Homo sapiens
AZ-521 cell line [1] = experiment: Compound was tested for its inhibitory effect on the growth of AZ-521 tumor cell line from stomach.; format: functional, cell-based; settings: Homo sapiens
AZ-521 cell line [2] = experiment: Compound was tested for its percentage inhibitory effect on the growth of AZ-521 tumor cell line from stomach at an iv dose of 2 mh/kg x10.; format: functional, Homo sapiens
BXPC-3 [3] = experiment: Compound was tested for its percentage inhibitory effect on the growth of BxPC-3 tumor cell line from […] at an iv dose of 15 mg/kg x14.; format: functional, Homo sapiens
Co-3 [4] = experiment: Compound was tested for its percentage inhibitory effect on the growth of CO-3 tumor cell line from colon at an iv dose of 15 mg/kg x14.; format: functional, Homo sapiens
DLD-1 [5] = experiment: Compound was tested for its percentage inhibitory effect on the growth of DLD-1 tumor cell line from colon at an iv dose of 15 mg/kg x14.; format: functional, Homo sapiens
COLO 320DM = experiment: Compound was tested for its inhibitory effect on the growth of COLO 320DM tumor cell line from colon.; format: functional, cell-based; settings: Homo sapiens
DLD-1 [6] = experiment: Compound was tested for its inhibitory effect on the growth of DLD-1 tumor cell line from colon.; format: functional, cell-based; settings: Homo sapiens
H-81 [7] = experiment: Compound was tested for its percentage inhibitory effect on the growth of H-81 tumor cell line from stomach at an iv dose of 15 mg/kg x14.; format: functional, Homo sapiens
HCT-15 = experiment: Compound was tested for its inhibitory effect on the growth of HCT-15 tumor cell line from colon.; format: functional, cell-based; settings: Homo sapiens
KKLS = experiment: Compound was tested for its inhibitory effect on the growth of KKLS tumor cell line from stomach.; format: functional, cell-based; settings: Homo sapiens
KM12 [8] = experiment: Compound was tested for its percentage inhibitory effect on the growth of KM12C tumor cell line from colon at an iv dose of 15 mg/kg x14.; format: functional, Homo sapiens
MKN-45 = experiment: Compound was tested for its inhibitory effect on the growth of MKN-45 tumor cell line from stomach.; format: functional, cell-based; settings: Homo sapiens
MKN-28 = experiment: Compound was tested for its inhibitory effect on the growth of MKN-28 tumor cell line from stomach.; format: functional, cell-based; settings: Homo sapiens
NUGC-3 = experiment: Compound was tested for its inhibitory effect on the growth of NUGC-3 tumor cell line from stomach.; format: functional, cell-based; settings: Homo sapiens
PAM12 [9] = experiment: Compound was tested for its percentage inhibitory effect on the growth of PAN-12 tumor cell line from […] at an iv dose of 15 mg/kg x14.; format: functional, Homo sapiens
PANC-1 = experiment: Compound was tested for its inhibitory effect on the growth of PANC-1 tumor cell line from pancreas.; format: functional, cell-based; settings: Homo sapiens
SW48 = experiment: Compound was tested for its inhibitory effect on the growth of SW-48 tumor cell line from colon.; format: functional, cell-based; settings: Homo sapiens
SNU-C2A = experiment: Compound was tested for its inhibitory effect on the growth of […] tumor cell line from colon.; format: functional, cell-based; settings: Homo sapiens
T-24 = experiment: Compound was tested for its inhibitory effect on the growth of T24 tumor cell line from bladder.; format: functional, cell-based; settings: Homo sapiens
HT-1080 = experiment: Compound was tested for its inhibitory effect on the growth of HT1080 sarcoma tumor cell line.; format: functional, cell-based; settings: Homo sapiens
AZ-521 cell line [10] = experiment: Compound was tested for its percentage inhibitory effect on the growth of AZ-521 tumor cell line from stomach at an iv dose of 2 mg/kg x10.; format: functional, Homo sapiens
BXPC-3 [11] = experiment: Compound was tested for its percentage inhibitory effect on the growth of BxPC-3 tumor cell line from […] at an iv dose of 2 mg/kg x10.; format: functional, Homo sapiens
Co-3 [12] = experiment: Compound was tested for its percentage inhibitory effect on the growth of CO-3 tumor cell line from colon at an iv dose of 2 mg/kg x10.; format: functional, Homo sapiens
DLD-1 [13] = experiment: Compound was tested for its percentage inhibitory effect on the growth of DLD-1 tumor cell line from colon at an iv dose of 2 mg/kg x10.; format: functional, Homo sapiens
H-81 [14] = experiment: Compound was tested for its percentage inhibitory effect on the growth of H-81 tumor cell line from stomach at an iv dose of 2 mg/kg x10.; format: functional, Homo sapiens
KM12 [15] = experiment: Compound was tested for its percentage inhibitory effect on the growth of KM12C tumor cell line from colon at an iv dose of 2 mg/kg x10.; format: functional, Homo sapiens
PAM12 [16] = experiment: Compound was tested for its percentage inhibitory effect on the growth of PAN-12 tumor cell line from […] at an iv dose of 2 mg/kg x10.; format: functional, Homo sapiens

| SMILES | IC50 (A549) | IC50 (AZ-521 cell line [1]) | IC50 (COLO 320DM) | IC50 (DLD-1 [6]) | IC50 (HCT-15) | IC50 (KKLS) | IC50 (MKN-45) | IC50 (MKN-28) | IC50 (NUGC-3) | IC50 (PANC-1) | IC50 (SW48) | IC50 (SNU-C2A) | IC50 (T-24) | IC50 (HT-1080) | further results |
| --- | --- | --- | --- | --- | --- | --- | --- | --- | --- | --- | --- | --- | --- | --- | --- |
| O=c1[nH]cc(F)c(=O)[nH]1 [FLUOROURACIL] | 1700 nM | 3900 nM | 1100 nM | 6000 nM | 5700 nM | 6200 nM | 3000 nM | 2500 nM | 4400 nM | > 78000 nM | 5700 nM | 2700 nM | 22000 nM | – | Tumor inhibition ratio (AZ-521 cell line [2]): 25%; Tumor inhibition ratio (BXPC-3 [3]): 50%; Tumor inhibition ratio (Co-3 [4]): 49%; Tumor inhibition ratio (DLD-1 [5]): 50%; Tumor inhibition ratio (H-81 [7]): 83%; Tumor inhibition ratio (KM12 [8]): 59%; Tumor inhibition ratio (PAM12 [9]): 40% |
| O=c1[nH]c(=O)n([C@@H]2O[C@H](CO)[C@@H](O)[C@H]2O)cc1F [5-FLUOROURIDINE] | 1900 nM | 50 nM | 5.4 nM | 73 nM | 47 nM | 16 nM | 26 nM | 28 nM | 22 nM | 11000 nM | 16 nM | 45 nM | 14 nM | 41 nM | – |
| C#C[C@]1(O)[C@@H](CO)O[C@@H](n2ccc(=O)[nH]c2=O)[C@@H]1O | 29 nM | 36 nM | 60 nM | 66 nM | 43 nM | 190 nM | 24 nM | 80 nM | 34 nM | 11000 nM | 120 nM | 18 nM | 34 nM | 24 nM | Ratio (AZ-521 cell line [10]): 81; Tumor inhibition ratio (BXPC-3 [11]): 35%; Tumor inhibition ratio (Co-3 [12]): 90%; Tumor inhibition ratio (DLD-1 [13]): 73%; Tumor inhibition ratio (H-81 [14]): 92%; Tumor inhibition ratio (KM12 [15]): 81%; Tumor inhibition ratio (PAM12 [16]): 81% |
| O=c1[nH]c(=O)n([C@H]2C[C@H](O)[C@@H](CO)O2)cc1F [FLOXURIDINE] | 1000 nM | 50 nM | 650 nM | 92 nM | 49 nM | 760 nM | 3500 nM | 120 nM | 15 nM | > 40000 nM | 130 nM | 3.3 nM | 120 nM | 120 nM | – |
